According to ChEMBL document CHEMBL1122067, “Species- or isozyme-specific enzyme inhibitors. 4. Design of a two-site inhibitor of adenylate kinase with isozyme selectivity” (J Med Chem, 1982):

Tests used:
[1] = Inhibitory constant of rat adenylate kinase (AK) isozymes expressed as relative maximal velocity
[2] = Inhibitory constant of rat adenylate kinase(AK) isozymes and maximal velocity was determined
[3] = test system: CCCCNc1ncnc2c1ncn2C1O[C@H](COP(=O)(O)OP(=O)(O)OP(=O)(O)O)[C@@H](O)[C@H]1O; test: (§1) Concentration for half-maximal velocity for adenylate kinase (AK II) was determined
[4] = test system: Nc1ncnc2c1ncn2[C@@H]1O[C@H](COP(=O)(O)O)[C@@H](O)[C@H]1O; test: as §1
[5] = test system: O=C(CI)NCCCCCNc1ncnc2c1ncn2C1O[C@H](COP(=O)(O)OP(=O)(O)OP(=O)(O)O)[C@@H](O)[C@H]1O; test: as §1
[6] = test system: CC(=O)NCCCCCCCCNc1ncnc2c1ncn2C1O[C@H](COP(=O)(O)O)[C@@H](O)[C@H]1O; test: (§2) Inhibitory constant of rat adenylate kinase (AK II) isozymes expressed as relative maximal velocity
[7] = test system: CC(=O)NCCNc1ncnc2c1ncn2C1O[C@H](COP(=O)(O)O)[C@@H](O)[C@H]1O; test: as §2
[8] = test system: CCCCNc1ncnc2c1ncn2C1O[C@H](COP(=O)(O)OP(=O)(O)OP(=O)(O)O)[C@@H](O)[C@H]1O; test: as §2
[9] = test system: CCSc1nc2c(N)ncnc2n1[C@@H]1O[C@H](COP(=O)(O)O)[C@@H](O)[C@H]1O; test: as §2
[10] = test system: Nc1ncnc2c1ncn2[C@@H]1O[C@H](COP(=O)(O)O)[C@@H](O)[C@H]1O; test: as §2
[11] = test system: O=C(CI)NCCCCCNc1ncnc2c1ncn2C1O[C@H](COP(=O)(O)OP(=O)(O)OP(=O)(O)O)[C@@H](O)[C@H]1O; test: as §2
[12] = Concentration for half-maximal velocity for adenylate kinase (AK) was determined

Row | Compound | Vmax [1] | Km [12] | also measured
1 | CCCCN(CCCC)c1ncnc2c1ncn2C1O[C@H](COP(=O)(O)OP(=O)(O)OP(=O)(O)O)[C@@H](O)[C@H]1O (stereo partly specified) | 0% | – | –
2 | CCCSc1nc2c(N)ncnc2n1[C@@H]1O[C@H](COP(=O)(O)OP(=O)(O)OP(=O)(O)O)[C@@H](O)[C@H]1O | 0% | – | –
3 | Nc1ncnc2c1nc(Sc1ccccc1)n2[C@@H]1O[C@H](COP(=O)(O)OP(=O)(O)OP(=O)(O)O)[C@@H](O)[C@H]1O | 0% | – | –
4 | CC(=O)NCCCCCCCCNc1ncnc2c1ncn2C1O[C@H](COP(=O)(O)O)[C@@H](O)[C@H]1O (stereo partly specified) | 0% | – | –
5 | O=C(CI)NCCCCCNc1ncnc2c1ncn2C1O[C@H](COP(=O)(O)OP(=O)(O)OP(=O)(O)O)[C@@H](O)[C@H]1O (stereo partly specified) | 0% | – | –
6 | CC(=O)NCCNc1ncnc2c1ncn2C1O[C@H](COP(=O)(O)O)[C@@H](O)[C@H]1O (stereo partly specified) | – | – | Vmax [2]: 0%
7 | Adenylate kinase 2, mitochondrial (Rattus norvegicus) (from UniProt P29410) | – | – | Km [3]: 1400 µM; Km [4]: 90 µM; Km [5]: 1000 µM; Vmax [6]: 0%; Vmax [7]: 0%; Vmax [8]: 13%; Vmax [9]: 0%; Vmax [10]: 100%; Vmax [11]: 21%
8 | Nc1ncnc2c1ncn2[C@@H]1O[C@H](COP(=O)(O)OP(=O)(O)OP(=O)(O)O)[C@@H](O)[C@H]1O | 100% | 570 µM | –
9 | CCCCNc1ncnc2c1ncn2C1O[C@H](COP(=O)(O)OP(=O)(O)OP(=O)(O)O)[C@@H](O)[C@H]1O (stereo partly specified) | 86% | 2800 µM | –
10 | CCCCSc1ncnc2c1ncn2C1O[C@H](COP(=O)(O)OP(=O)(O)OP(=O)(O)O)[C@@H](O)[C@H]1O (stereo partly specified) | 192% | 4000 µM | –
